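Dose response: 5 concentrations. Exposure: 48 h. Format: 96-well plates. Endpoint: linear interpolation; highest concentration if not reached. GI50 is the concentration that inhibits growth by half.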 The source made the active and inactive calls. Rule as the data show it: active = GI50 up to about 1.1 µM and inactive = higher.
Legend:
Assay in all cases: NCI-60 cell line screen, 48 h
[1] = tested on: DMS-114
[2] = tested on: TK-10
[3] = tested on: LXFL 529
[4] = tested on: SW-620
[5] = tested on: CCRF-CEM
[6] = tested on: HOP-92
[7] = tested on: LOX IMVI
[8] = tested on: KM-20L2
[9] = tested on: OVCAR-4
[10] = tested on: RXF 393
[11] = tested on: SF-295
[12] = tested on: SK-OV-3
[13] = tested on: NCI-H226
[14] = tested on: COLO 205
[15] = tested on: A549
[16] = tested on: A498
[17] = tested on: DMS-273
[18] = tested on: RXF 631
[19] = tested on: SNB-75
[20] = tested on: NCI-H522
[21] = tested on: 786-0
[22] = tested on: OVCAR-5
[23] = tested on: HCC 2998
[24] = tested on: CAKI-1
[25] = tested on: UACC-62
[26] = tested on: SN12C
[27] = tested on: ACHN
[28] = tested on: M19-MEL
[29] = tested on: RPMI-8226
[30] = tested on: Malme-3M
[31] = tested on: HCT-116
[32] = tested on: HOP-62
[33] = tested on: HL-60
[34] = tested on: SNB-19
[35] = tested on: EKVX
[36] = tested on: SK-MEL-5
[37] = tested on: SNB-78
[38] = tested on: SF-268
[39] = tested on: MOLT-4
[40] = tested on: OVCAR-3
[41] = tested on: SR
[42] = tested on: HCT-15
[43] = tested on: KM12
[44] = tested on: SF-539
[45] = tested on: HT-29
[46] = tested on: OVCAR-8
[47] = tested on: UACC-257
[48] = tested on: UO-31
[49] = tested on: DLD-1
[50] = tested on: IGROV-1
[51] = tested on: NCI-H460
[52] = tested on: SK-MEL-28
[53] = tested on: M14
[54] = tested on: U-251
[55] = tested on: HOP-18
[56] = tested on: K562
[57] = tested on: SK-MEL-2
[58] = tested on: NCI-H23
[59] = tested on: MDA-MB-435
[60] = tested on: MCF7

CC1=C2C(O)C(C(C)CO)C(O)CC2(C)C(O)CC1 (stereo unspecified)
GI50 [1]: > 100 µM (inactive)
GI50 [2]: > 100 µM (inactive)
GI50 [3]: > 100 µM (inactive)
GI50 [4]: > 100 µM (inactive)
GI50 [5]: > 100 µM (inactive)
GI50 [6]: > 100 µM (inactive)
GI50 [7]: > 100 µM (inactive)
GI50 [8]: > 100 µM (inactive)
GI50 [9]: > 100 µM (inactive)
GI50 [10]: > 100 µM (inactive)
GI50 [11]: > 100 µM (inactive)
GI50 [12]: > 100 µM (inactive)
GI50 [13]: > 100 µM (inactive)
GI50 [14]: > 100 µM (inactive)
GI50 [15]: > 100 µM (inactive)
GI50 [16]: > 100 µM (inactive)
GI50 [17]: > 100 µM (inactive)
GI50 [18]: > 100 µM (inactive)
GI50 [19]: > 100 µM (inactive)
GI50 [20]: > 100 µM (inactive)
GI50 [21]: > 100 µM (inactive)
GI50 [22]: > 100 µM (inactive)
GI50 [23]: > 100 µM (inactive)
GI50 [24]: > 100 µM (inactive)
GI50 [25]: > 100 µM (inactive)
GI50 [26]: > 100 µM (inactive)
GI50 [27]: > 100 µM (inactive)
GI50 [28]: > 100 µM (inactive)
GI50 [29]: > 100 µM (inactive)
GI50 [30]: > 100 µM (inactive)
GI50 [31]: > 100 µM (inactive)
GI50 [32]: > 100 µM (inactive)
GI50 [33]: > 100 µM (inactive)
GI50 [34]: > 100 µM (inactive)
GI50 [35]: > 100 µM (inactive)
GI50 [36]: > 100 µM (inactive)
GI50 [37]: > 100 µM (inactive)
GI50 [38]: > 100 µM (inactive)
GI50 [39]: > 100 µM (inactive)
GI50 [40]: > 100 µM (inactive)
GI50 [41]: > 100 µM (inactive)
GI50 [42]: > 100 µM
GI50 [43]: > 100 µM (inactive)
GI50 [44]: > 100 µM (inactive)
GI50 [45]: > 100 µM (inactive)
GI50 [46]: > 100 µM (inactive)
GI50 [47]: > 100 µM (inactive)
GI50 [48]: > 100 µM (inactive)
GI50 [49]: > 100 µM (inactive)
GI50 [50]: > 100 µM (inactive)
GI50 [51]: > 100 µM (inactive)
GI50 [52]: > 100 µM (inactive)
GI50 [53]: > 100 µM (inactive)
GI50 [54]: > 100 µM (inactive)

Cc1nc(-c2ccccc2)cc2c1c(=O)oc1ccccc12
GI50 [1]: > 100 µM (inactive)
GI50 [55]: > 100 µM (inactive)
GI50 [56]: > 100 µM (inactive)
GI50 [3]: > 100 µM (inactive)
GI50 [4]: > 100 µM (inactive)
GI50 [5]: > 100 µM (inactive)
GI50 [6]: > 100 µM (inactive)
GI50 [8]: > 100 µM (inactive)
GI50 [9]: > 100 µM (inactive)
GI50 [10]: > 100 µM (inactive)
GI50 [11]: > 100 µM (inactive)
GI50 [12]: > 100 µM (inactive)
GI50 [13]: > 100 µM (inactive)
GI50 [14]: > 100 µM (inactive)
GI50 [15]: > 100 µM (inactive)
GI50 [17]: > 100 µM (inactive)
GI50 [18]: > 100 µM (inactive)
GI50 [19]: 83.4 µM (inactive)
GI50 [20]: > 100 µM (inactive)
GI50 [21]: > 100 µM (inactive)
GI50 [22]: > 100 µM (inactive)
GI50 [23]: > 100 µM (inactive)
GI50 [24]: > 100 µM (inactive)
GI50 [25]: 46.8 µM (inactive)
GI50 [26]: > 100 µM (inactive)
GI50 [27]: > 100 µM (inactive)
GI50 [29]: > 100 µM (inactive)
GI50 [30]: > 100 µM (inactive)
GI50 [31]: > 100 µM (inactive)
GI50 [32]: > 100 µM (inactive)
GI50 [33]: > 100 µM (inactive)
GI50 [34]: > 100 µM (inactive)
GI50 [35]: > 100 µM (inactive)
GI50 [36]: > 100 µM (inactive)
GI50 [37]: > 100 µM (inactive)
GI50 [38]: > 100 µM (inactive)
GI50 [39]: > 100 µM (inactive)
GI50 [40]: > 100 µM (inactive)
GI50 [41]: > 100 µM (inactive)
GI50 [42]: > 100 µM
GI50 [57]: > 100 µM (inactive)
GI50 [43]: > 100 µM (inactive)
GI50 [44]: > 100 µM (inactive)
GI50 [45]: > 100 µM (inactive)
GI50 [46]: > 100 µM (inactive)
GI50 [47]: > 100 µM (inactive)
GI50 [48]: > 100 µM (inactive)
GI50 [49]: > 100 µM (inactive)
GI50 [50]: > 100 µM (inactive)
GI50 [51]: > 100 µM (inactive)
GI50 [52]: > 100 µM (inactive)
GI50 [53]: > 100 µM (inactive)
GI50 [58]: > 100 µM (inactive)
GI50 [54]: > 100 µM (inactive)

CC[C@H]1CN2CCc3cc(OC)c(OC)cc3[C@@H]2C[C@@H]1C[C@H]1NCCc2cc(OC)c(OC)cc21
GI50 [55]: 0.0578 µM (active)
GI50 [56]: 0.0104 µM (active)
GI50 [3]: 0.0276 µM (active)
GI50 [8]: 0.0652 µM (active)
GI50 [17]: 0.043 µM (active)
GI50 [18]: 0.0311 µM (active)
GI50 [20]: 0.0109 µM (active)
GI50 [31]: 0.0149 µM (active)
GI50 [59]: 0.0188 µM (active)
GI50 [33]: 0.0148 µM (active)
GI50 [39]: 0.0161 µM (active)
GI50 [49]: 0.0358 µM (active)
GI50 [60]: 0.00347 µM (active)
